This is an account of results in patent US9474790B2, “Stable, protracted GLP-1/glucagon receptor co-agonists for medical use” (Novo Nordisk A/S, priority 2013, dated 2016).

Numbered stars: 1 amine (or outer) side, 2 acyl side, 3 side chain; on linkers, the order of the positions; unused ones are H or OH. Square brackets hold non-standard residues; d marks the D form. Side chains are listed from the residue outwards. Peptide text beside a SMILES is read from it. * marks the point of attachment. C18 diacid = O=C(O)CCCCCCCCCCCCCCCCC(=O)*; γGlu = O=C(O)[C@H](CCC(=O)[*:2])N[*:1]; AEEA = NCCOCCOCC(=O)O; Aib = CC(C)(N)C(=O)O

Data set [1] is described as follows: Thioflavin T (ThT) fibrillation assay for physical stability. Format: physicochemical. To be noted: 250 μM in 10 mM HEPES buffer, pH 7.5, 37° C., shaking 960 rpm. A digest of the protocol: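 Peptide at 250 μM in 10 mM HEPES pH 7.5 with 1 μM ThT, at 37° C with 960 rpm orbital shaking. Fluorescence (ex 444/em 485 nm) read every 20 min after 10 min pre-incubation; sigmoidal fit gives lag time (t0−2τ) and kapp (1/τ). Recovery is RP-HPLC peptide in the centrifuged, 0.22 μm-filtered supernatant as % of initial.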

For data set [2], the target named is T1, human GLP-1 receptor (Homo sapiens, UniProt P43220).
T1 construct: expressed in transfected cells; host or cells: BHK cells (parent BHKTS13), clone FCW467-12A/KZ10-1, with CRE luciferase
As to the kind of experiment: GLP-1 receptor potency, CRE luciferase reporter gene assay in BHK cells. The class given is cell-based. To be noted: BHK cells expressing human GLP-1 receptor, read-out: EC50 GLP-1R. A digest of the protocol:
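BHK cells stably expressing human GLP-1 receptor with CRE-luciferase reporter, 5×10EE3 cells/well in phenol red-free DMEM with 10 mM Hepes, 2% ovalbumin, 0.2% Pluronic F-68. Compounds at final 1×10EE-6 to 1×10EE-13 M, 3 h at 37° C; steadylite luminescence; EC50 by four-parameter fit, in pM.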
A general note: A reporter such as luciferase makes a cellular process visible.

T1 sequence (P43220 24-463): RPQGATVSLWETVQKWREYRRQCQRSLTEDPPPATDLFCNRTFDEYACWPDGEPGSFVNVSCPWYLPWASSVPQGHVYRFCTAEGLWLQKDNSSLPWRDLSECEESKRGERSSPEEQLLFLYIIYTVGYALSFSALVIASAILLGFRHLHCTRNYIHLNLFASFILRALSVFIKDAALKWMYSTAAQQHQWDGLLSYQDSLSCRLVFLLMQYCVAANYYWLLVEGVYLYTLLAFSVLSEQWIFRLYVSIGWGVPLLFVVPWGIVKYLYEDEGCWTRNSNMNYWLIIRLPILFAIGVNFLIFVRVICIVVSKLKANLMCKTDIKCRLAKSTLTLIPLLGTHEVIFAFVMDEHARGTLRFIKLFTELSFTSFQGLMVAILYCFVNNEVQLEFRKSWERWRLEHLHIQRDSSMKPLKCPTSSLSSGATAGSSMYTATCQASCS

`CC(C)C[C@H](NC(=O)[C@H](Cc1ccc(O)cc1)NC(=O)[C@H](CCCCN)NC(=O)[C@H](CO)NC(=O)[C@H](CC(C)C)NC(=O)[C@H](CC(=O)O)NC(=O)[C@H](CO)NC(=O)[C@@H](NC(=O)[C@H](Cc1ccccc1)NC(=O)[C@@H](NC(=O)CNC(=O)[C@H](CCC(N)=O)NC(=O)C(C)(C)NC(=O)[C@@H](N)Cc1c[nH]cn1)[C@@H](C)O)[C@@H](C)O)C(=O)N[C@@H](CCC(=O)O)C(=O)N[C@@H](CO)C(=O)N[C@@H](CCCNC(=N)N)C(=O)N[C@@H](CCCNC(=N)N)C(=O)N[C@@H](C)C(=O)N[C@@H](CCCNC(=N)N)C(=O)N[C@@H](CCC(=O)O)C(=O)N[C@@H](Cc1ccccc1)C(=O)N[C@H](C(=O)N[C@@H](CCC(N)=O)C(=O)N[C@@H](Cc1c[nH]c2ccccc12)C(=O)N[C@@H](CC(C)C)C(=O)N[C@@H](CC(C)C)C(=O)N[C@@H](CCCCNC(=O)COCCOCCNC(=O)COCCOCCNC(=O)CC[C@H](NC(=O)CC[C@H](NC(=O)CC[C@H](NC(=O)CCCCCCCCCCCCCCCCC(=O)O)C(=O)O)C(=O)O)C(=O)O)C(=O)N[C@H](C(N)=O)[C@@H](C)O)C(C)C` [Example 42, N^ε28-[2-[2-[2-[[2-[2-[2-[[(4S)-4-carboxy-4-[[(4S)-4-carboxy-4-[[(4S)-4-carboxy-4-(17-carboxyheptadecanoylamino)butanoyl]amino]butanoyl]amino]butanoyl]amino]ethoxy]ethoxy]acetyl]amino]ethoxy]ethoxy]acetyl]-[Aib2,Leu10,Glu15,Arg20,Glu21,Leu27,Lys28]-Glucagon amide] (H-H[Aib]QGTFTSDLSKYLESRRAREFVQWLLK([AEEA-AEEA-γGlu-γGlu-γGlu-C18 diacid])T-NH2; N-terminus assumed): the THT assay Lag time (Ex. 76) in data set [1] turned out to be 45 h. Further, the EC50 in data set [2] turned out to be 3 pM.

`CC(C)C[C@H](NC(=O)[C@H](Cc1ccc(O)cc1)NC(=O)[C@H](CCCCN)NC(=O)[C@H](CO)NC(=O)[C@H](CC(C)C)NC(=O)[C@H](CC(=O)O)NC(=O)[C@H](CO)NC(=O)[C@@H](NC(=O)[C@H](Cc1ccccc1)NC(=O)[C@@H](NC(=O)CNC(=O)[C@H](Cc1c[nH]cn1)NC(=O)C(C)(C)NC(=O)[C@@H](N)Cc1c[nH]cn1)[C@@H](C)O)[C@@H](C)O)C(=O)N[C@@H](CCC(=O)O)C(=O)N[C@@H](CO)C(=O)N[C@@H](CCCCN)C(=O)N[C@@H](CCCNC(=N)N)C(=O)N[C@@H](C)C(=O)N[C@@H](CCCNC(=N)N)C(=O)N[C@@H](CCC(=O)O)C(=O)N[C@@H](Cc1ccccc1)C(=O)N[C@H](C(=O)N[C@@H](CCC(N)=O)C(=O)N[C@@H](Cc1c[nH]c2ccccc12)C(=O)N[C@@H](CC(C)C)C(=O)N[C@@H](CC(C)C)C(=O)N[C@@H](CCCCNC(=O)CC[C@H](NC(=O)CC[C@H](NC(=O)CC[C@H](NC(=O)CCCCCCCCCCCCCCCCC(=O)O)C(=O)O)C(=O)O)C(=O)O)C(=O)N[C@H](C(N)=O)[C@@H](C)O)C(C)C` [Example 34, N^ε28-[(4S)-4-carboxy-4-[[(4S)-4-carboxy-4-[[(4S)-4-carboxy-4-(17-carboxyheptadecanoylamino)butanoyl]amino]butanoyl]amino]butanoyl]-[Aib2,His3,Leu10,Glu15,Lys17,Arg20,Glu21,Leu27,Lys28]-Glucagon amide] (H-H[Aib]HGTFTSDLSKYLESKRAREFVQWLLK([γGlu-γGlu-γGlu-C18 diacid])T-NH2; N-terminus assumed) displayed a THT assay Lag time (Ex. 76) in data set [1] of 45 h. Also, the EC50 in data set [2] stood at 14.7 pM.

Regarding `CC(C)C[C@H](NC(=O)[C@H](Cc1ccc(O)cc1)NC(=O)[C@H](CCCCN)NC(=O)[C@H](CO)NC(=O)[C@H](CC(C)C)NC(=O)[C@H](CC(=O)O)NC(=O)[C@H](CO)NC(=O)[C@@H](NC(=O)[C@H](Cc1ccccc1)NC(=O)[C@@H](NC(=O)CNC(=O)[C@H](CCC(N)=O)NC(=O)C(C)(C)NC(=O)[C@@H](N)Cc1c[nH]cn1)[C@@H](C)O)[C@@H](C)O)C(=O)N[C@@H](CCC(=O)O)C(=O)N[C@@H](CO)C(=O)N[C@@H](CCCNC(=N)N)C(=O)N[C@@H](CCCNC(=N)N)C(=O)N[C@@H](C)C(=O)N[C@@H](CCCNC(=N)N)C(=O)N[C@@H](CCC(=O)O)C(=O)N[C@@H](Cc1ccccc1)C(=O)N[C@H](C(=O)N[C@@H](CCC(N)=O)C(=O)N[C@@H](Cc1c[nH]c2ccccc12)C(=O)N[C@@H](CC(C)C)C(=O)N[C@@H](CC(C)C)C(=O)N[C@@H](CCCCNC(=O)CC[C@H](NC(=O)CC[C@H](NC(=O)COCCOCCNC(=O)COCCOCCNC(=O)CC[C@H](NC(=O)CC[C@H](NC(=O)CCCCCCCCCCCCCCCCC(=O)O)C(=O)O)C(=O)O)C(=O)O)C(=O)O)C(=O)N[C@H](C(N)=O)[C@@H](C)O)C(C)C` [Example 60, N^ε28-[(4S)-4-carboxy-4-[[(4S)-4-carboxy-4-[[2-[2-[2-[[2-[2-[2-[[(4S)-4-carboxy-4-[[(4S)-4-carboxy-4-(17-carboxyheptadecanoylamino)butanoyl]amino]butanoyl]amino]ethoxy]ethoxy]acetyl]amino]ethoxy]ethoxy]acetyl]amino]butanoyl]amino]butanoyl]-[Aib2,Leu10,Glu15,Arg20,Glu21,Leu27,Lys28]-Glucagon amide] (H-H[Aib]QGTFTSDLSKYLESRRAREFVQWLLK([γGlu-γGlu-AEEA-AEEA-γGlu-γGlu-C18 diacid])T-NH2; N-terminus assumed), in data set [1], the THT assay Lag time (Ex. 76) is 45 h. In addition, the EC50 in data set [2] was found to be 6 pM.

In data set [1], `CC(C)C[C@H](NC(=O)[C@H](Cc1ccc(O)cc1)NC(=O)[C@H](CCCCN)NC(=O)[C@H](CO)NC(=O)[C@H](CC(C)C)NC(=O)[C@H](CC(=O)O)NC(=O)[C@H](CO)NC(=O)[C@@H](NC(=O)[C@H](Cc1ccccc1)NC(=O)[C@@H](NC(=O)CNC(=O)[C@H](CCC(N)=O)NC(=O)C(C)(C)NC(=O)[C@@H](N)Cc1c[nH]cn1)[C@@H](C)O)[C@@H](C)O)C(=O)N[C@@H](CC(=O)O)C(=O)N[C@@H](C)C(=O)N[C@@H](CCCNC(=N)N)C(=O)N[C@@H](CCCNC(=N)N)C(=O)N[C@@H](C)C(=O)N[C@@H](CCCNC(=N)N)C(=O)N[C@@H](CC(=O)O)C(=O)N[C@@H](Cc1ccccc1)C(=O)N[C@H](C(=O)N[C@@H](CCC(N)=O)C(=O)N[C@@H](Cc1c[nH]c2ccccc12)C(=O)N[C@@H](CC(C)C)C(=O)N[C@@H](CC(C)C)C(=O)N[C@@H](CO)C(=O)N[C@@H](CCCCNC(=O)CC[C@H](NC(=O)CC[C@H](NC(=O)COCCOCCNC(=O)COCCOCCNC(=O)CC[C@H](NC(=O)CCCCCCCCCCCCCCCCC(=O)O)C(=O)O)C(=O)O)C(=O)O)C(N)=O)C(C)C` [Example 66, N^ε29-[(4S)-4-carboxy-4-[[(4S)-4-carboxy-4-[[2-[2-[2-[[2-[2-[2-[[(4S)-4-carboxy-4-(17-carboxyheptadecanoylamino)butanoyl]amino]ethoxy]ethoxy]acetyl]amino]ethoxy]ethoxy]acetyl]amino]butanoyl]amino]butanoyl]-[Aib2,Leu10,Ala16,Arg20,Leu27,Ser28,Lys29]-Glucagon amide] (H-H[Aib]QGTFTSDLSKYLDARRARDFVQWLLSK([γGlu-γGlu-AEEA-AEEA-γGlu-C18 diacid])-NH2; N-terminus assumed) returned a THT assay Lag time (Ex. 76) of 45 h. Moreover, the EC50 in data set [2] worked out at 5 pM.

Usually EC50 stands for the concentration at which the effect is half-maximal.
